Read-outs that look alike come from different tables or passages of the source. One block for each compound: values may come before it.
Assays:
Format in all cases: biochemical
JAK3 = JAK3 (Homo sapiens (Human), UniProt P52333); assay: Enzyme assay (Assay Example^a 1), JAK3
Tyk2 = Tyk2 (Homo sapiens (Human), UniProt P29597); assay: Enzyme assay (Assay Example^a 1), Tyk2; settings: ATP 100 μM
JAK1 = JAK1 (Homo sapiens (Human), UniProt P23458); assay: Enzyme assay (Assay Example^a 1), JAK1; settings: ATP 100 μM; Table^a 154

Tyk2, sequence (P29597 whole entry): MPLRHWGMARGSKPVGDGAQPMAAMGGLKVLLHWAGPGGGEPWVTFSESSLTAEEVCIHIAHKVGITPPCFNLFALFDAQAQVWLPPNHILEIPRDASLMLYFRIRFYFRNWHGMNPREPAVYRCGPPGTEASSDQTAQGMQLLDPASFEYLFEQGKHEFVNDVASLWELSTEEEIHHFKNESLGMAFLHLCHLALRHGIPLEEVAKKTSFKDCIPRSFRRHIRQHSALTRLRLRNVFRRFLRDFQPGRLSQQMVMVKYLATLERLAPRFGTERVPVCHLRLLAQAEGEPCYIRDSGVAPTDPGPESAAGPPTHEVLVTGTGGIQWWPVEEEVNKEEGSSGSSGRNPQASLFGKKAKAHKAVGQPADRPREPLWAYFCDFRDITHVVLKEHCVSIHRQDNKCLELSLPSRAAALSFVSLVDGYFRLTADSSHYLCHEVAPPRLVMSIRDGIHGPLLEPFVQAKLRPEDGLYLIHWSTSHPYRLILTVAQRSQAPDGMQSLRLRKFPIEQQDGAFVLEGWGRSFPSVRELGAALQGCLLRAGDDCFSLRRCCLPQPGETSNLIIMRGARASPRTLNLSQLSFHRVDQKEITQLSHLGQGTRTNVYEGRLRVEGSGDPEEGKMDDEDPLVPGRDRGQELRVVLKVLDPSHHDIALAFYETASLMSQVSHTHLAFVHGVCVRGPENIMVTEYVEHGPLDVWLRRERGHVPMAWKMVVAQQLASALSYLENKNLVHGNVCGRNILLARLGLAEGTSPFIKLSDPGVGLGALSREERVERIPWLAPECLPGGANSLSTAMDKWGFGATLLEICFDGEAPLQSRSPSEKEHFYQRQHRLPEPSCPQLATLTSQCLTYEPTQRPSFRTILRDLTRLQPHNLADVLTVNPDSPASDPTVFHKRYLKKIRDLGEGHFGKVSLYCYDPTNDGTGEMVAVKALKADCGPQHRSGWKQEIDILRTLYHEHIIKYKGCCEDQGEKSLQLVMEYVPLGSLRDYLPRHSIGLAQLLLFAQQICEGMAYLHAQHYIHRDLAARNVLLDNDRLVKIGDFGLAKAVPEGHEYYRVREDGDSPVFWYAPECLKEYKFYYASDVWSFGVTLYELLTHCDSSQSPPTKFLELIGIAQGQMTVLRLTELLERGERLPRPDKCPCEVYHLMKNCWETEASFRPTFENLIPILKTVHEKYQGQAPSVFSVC
JAK3, sequence (P52333 whole entry): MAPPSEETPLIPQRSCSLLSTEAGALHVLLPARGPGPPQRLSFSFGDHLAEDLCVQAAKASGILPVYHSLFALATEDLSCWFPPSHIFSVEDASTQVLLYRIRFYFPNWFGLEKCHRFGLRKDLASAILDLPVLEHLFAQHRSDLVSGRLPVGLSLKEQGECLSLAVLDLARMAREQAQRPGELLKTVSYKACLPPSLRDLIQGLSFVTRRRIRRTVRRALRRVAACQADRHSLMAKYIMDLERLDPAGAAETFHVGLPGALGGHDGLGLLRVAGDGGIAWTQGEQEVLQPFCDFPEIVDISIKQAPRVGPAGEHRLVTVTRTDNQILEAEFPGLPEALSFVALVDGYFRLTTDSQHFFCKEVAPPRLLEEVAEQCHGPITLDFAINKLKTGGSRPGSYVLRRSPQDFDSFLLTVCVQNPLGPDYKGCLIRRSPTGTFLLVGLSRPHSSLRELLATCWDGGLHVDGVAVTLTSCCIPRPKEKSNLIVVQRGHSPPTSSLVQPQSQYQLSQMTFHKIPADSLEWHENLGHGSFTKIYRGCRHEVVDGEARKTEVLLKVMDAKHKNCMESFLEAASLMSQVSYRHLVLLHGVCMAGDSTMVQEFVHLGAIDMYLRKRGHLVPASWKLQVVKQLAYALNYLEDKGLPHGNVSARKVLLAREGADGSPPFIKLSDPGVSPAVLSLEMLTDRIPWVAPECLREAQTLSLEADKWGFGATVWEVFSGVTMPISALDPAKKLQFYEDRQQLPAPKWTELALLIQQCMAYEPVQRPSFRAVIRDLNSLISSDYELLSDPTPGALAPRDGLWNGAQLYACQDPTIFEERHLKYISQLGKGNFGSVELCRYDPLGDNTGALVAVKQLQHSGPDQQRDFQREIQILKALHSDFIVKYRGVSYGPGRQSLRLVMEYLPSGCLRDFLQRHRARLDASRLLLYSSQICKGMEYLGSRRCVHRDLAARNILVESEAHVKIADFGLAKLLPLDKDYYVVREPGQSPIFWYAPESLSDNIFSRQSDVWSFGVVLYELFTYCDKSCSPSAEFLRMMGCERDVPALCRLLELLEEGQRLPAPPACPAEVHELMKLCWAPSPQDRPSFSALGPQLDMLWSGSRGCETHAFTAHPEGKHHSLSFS

- IC50 (JAK3): 0.46 µM
Structure (SMILES): N#Cc1ccc(NC2CCC(c3nnn4cnc5[nH]ccc5c34)CC2)cc1 (stereo not shown) [compound 121]

- IC50 (JAK3): 0.055 µM
Structure (SMILES): CC(=O)SC[C@H]1CC[C@H](c2nnn3cnc4[nH]ccc4c23)CC1 [compound 71]

- IC50 (JAK3; ATP 100 μM, Table^a 154): 0.62 µM
Structure (SMILES): Fc1ccc(CN2CCC(c3nnn4cnc5[nH]ccc5c34)CC2)cc1C(F)(F)F [compound 154]

- IC50 (JAK3; ATP 100 μM, Table^a 154): 0.53 µM
Structure (SMILES): FC(F)(F)c1cccc(CN2CCC(c3nnn4cnc5[nH]ccc5c34)CC2)c1 [compound 39]

- IC50 (JAK3; ATP 100 μM, Table^a 154): 0.63 µM
Structure (SMILES): c1cc(CN2CCC(c3nnn4cnc5[nH]ccc5c34)CC2)[nH]n1 [compound 151]

- IC50 (JAK3; ATP 100 μM, Table^a 154): 0.31 µM
Structure (SMILES): c1coc(CN2CCC(c3nnn4cnc5[nH]ccc5c34)CC2)c1 [compound 146]

- IC50 (JAK3): 0.28 µM
Structure (SMILES): O[C@H]1CC[C@@H](c2nnn3cnc4[nH]ccc4c23)CC1 [compound 83]

- IC50 (JAK3; ATP 100 μM, Table^a 154): 0.048 µM
Structure (SMILES): CC(=O)OC[C@H]1CC[C@H](c2nnn3cnc4[nH]ccc4c23)CC1 [compound 72]

- IC50 (JAK3; ATP 100 μM, Table^a 154): 0.48 µM
Structure (SMILES): O=C(Nc1nncs1)N1CCC(c2nnn3cnc4[nH]ccc4c23)CC1 [compound 30]

- IC50 (JAK3): 1 µM
Structure (SMILES): N#Cc1ccc(N[C@H]2CC[C@@H](c3nnn4cnc5[nH]ccc5c34)CC2)cc1 [134a]

- IC50 (JAK3): 0.66 µM
Structure (SMILES): N#Cc1ccc(N[C@H]2CC[C@H](c3nnn4cnc5[nH]ccc5c34)CC2)cc1 [134b]

- IC50 (JAK3; ATP 100 μM, Table^a 154): 0.64 µM
Structure (SMILES): c1cc2c(ncn3nnc([C@H]4CC[C@H](CN5CCOCC5)CC4)c23)[nH]1 [compound 91]

- IC50 (JAK3; ATP 100 μM, Table^a 154): > 1 µM
Structure (SMILES): O=C(OCc1ccccc1)N1CCC(c2[nH]c(=S)n3cnc4[nH]ccc4c23)CC1 [compound 85]

- IC50 (JAK3; ATP 100 μM, Table^a 154): 0.36 µM
Structure (SMILES): Fc1ccccc1CN1CCC(c2nnn3cnc4[nH]ccc4c23)CC1 [compound 142]

- IC50 (Tyk2): 0.032 µM
Structure (SMILES): O[C@@H](CNC[C@H]1CC[C@H](c2nnn3cnc4[nH]ccc4c23)CC1)c1ccccc1 [compound 276, (R)-2-({[trans-4-(7H-pyrrolo[3,2-e][1,2,3]triazolo[1,5-c]pyrimidin-1-yl)cyclohexyl]methyl}amino)-1-phenylethanol]

- IC50 (JAK3; ATP 100 μM, Table^a 154): 0.032 µM
Structure (SMILES): ClC[C@H]1CC[C@H](c2nnn3cnc4[nH]ccc4c23)CC1 [compound 75]

- IC50 (JAK3; ATP 100 μM, Table^a 154): 0.015 µM
Structure (SMILES): Brc1ncc(CN2CCC(c3nnn4cnc5[nH]ccc5c34)CC2)s1 [compound 153]

- IC50 (Tyk2; Table^a 154): 0.33 µM
Structure (SMILES): O[C@H](CN[C@H]1CC[C@H](c2nnn3cnc4[nH]ccc4c23)CC1)c1ccccc1 [203b, (S)-2-{[trans-4-(7H-pyrrolo[3,2-e][1,2,3]triazolo[1,5-c]pyrimidin-1-yl)cyclohexyl]amino}-1-phenylethanol]

Further lines, the compound ahead of its results:

Structure (SMILES): FC(F)(F)c1ccc(CN2CCC(c3nnn4cnc5[nH]ccc5c34)CC2)cn1 [compound 52]
- IC50 (JAK3): 0.041 µM

Structure (SMILES): CC(c1ccccc1)N1CCC(c2nnn3cnc4[nH]ccc4c23)CC1 (racemic) [compound 245, 1-[1-(1-phenylethyl)piperidin-4-yl]-7H-pyrrolo[3,2-e][1,2,3]triazolo[1,5-c]pyrimidine]
- IC50 (Tyk2): > 1 µM
- IC50 (JAK3; ATP 100 μM): > 1 µM

Structure (SMILES): OC(CN[C@H]1CC[C@H](c2nnn3cnc4[nH]ccc4c23)CC1)c1ccccc1 (mixture of isomers) [202b, 2-{[trans-4-(7H-pyrrolo[3,2-e][1,2,3]triazolo[1,5-c]pyrimidin-1-yl)cyclohexyl]amino}-1-phenylethanol]
- IC50 (Tyk2; Table^a 154): 0.26 µM

Structure (SMILES): N[C@H]1CC[C@H](c2nnn3cnc4[nH]ccc4c23)CC1 [compound 61]
- IC50 (Tyk2; Table^a 154): 0.44 µM

Structure (SMILES): Cc1cc(NC(=O)N2CCC(c3nnn4cnc5[nH]ccc5c34)CC2)sn1 [compound 31]
- IC50 (JAK3; ATP 100 μM, Table^a 154): > 1 µM

Structure (SMILES): COC[C@H]1CC[C@H](c2nnn3cnc4[nH]ccc4c23)CC1 [compound 62]
- IC50 (Tyk2; Table^a 154): 0.14 µM
- IC50 (JAK3; ATP 100 μM, Table^a 154): 0.47 µM

Structure (SMILES): O[C@H]1CC[C@H](c2nnn3cnc4[nH]ccc4c23)CC1 [compound 81]
- IC50 (JAK3): 0.64 µM

Structure (SMILES): Clc1ccc(CN2CCC(c3nnn4cnc5[nH]ccc5c34)CC2)cc1 [compound 54]
- IC50 (JAK3): 0.071 µM

Structure (SMILES): FC(F)(F)c1ccc(CN2CCC(c3[nH]c(=S)n4cnc5[nH]ccc5c34)CC2)cc1 [compound 86]
- IC50 (JAK1): 0.02 µM

Structure (SMILES): FC(F)(F)c1ccc(CN2CCCC(c3nnn4cnc5[nH]ccc5c34)C2)cc1 (racemic) [compound 23]
- IC50 (JAK1): 0.55 µM

Structure (SMILES): Fc1ccc(NC[C@H]2CC[C@H](c3nnn4cnc5[nH]ccc5c34)CC2)c(C(F)(F)F)c1 [compound 117]
- IC50 (JAK1): 0.039 µM
- IC50 (JAK3): > 1 µM

Structure (SMILES): c1cc2c(ncn3nnc(C4CCC(N5CCOCC5)CC4)c23)[nH]1 (stereo not shown) [compound 124]
- IC50 (JAK3; ATP 100 μM, Table^a 154): > 1 µM

Structure (SMILES): O=C(OCc1ccccc1)N1CCC(c2nnn3cnc4[nH]ccc4c23)C1 (racemic) [compound 211, Benzyl 3-(7H-pyrrolo[3,2-e][1,2,3]triazolo[1,5-c]pyrimidin-1-yl)pyrrolidine-1-carboxylate]
- IC50 (JAK1): 0.12 µM

Structure (SMILES): c1ccc(CN2CCCC(c3nnn4cnc5[nH]ccc5c34)C2)cc1 (racemic) [compound 16]
- IC50 (JAK1): 0.28 µM
- IC50 (JAK3; ATP 100 μM, Table^a 154): 5.3 µM

Structure (SMILES): OC(CNC[C@H]1CC[C@H](c2nnn3cnc4[nH]ccc4c23)CC1)c1ccccc1 (mixture of isomers) [compound 186, 2-({[trans-4-(7H-pyrrolo[3,2-e][1,2,3]triazolo[1,5-c]pyrimidin-1-yl)cyclohexyl]methyl}amino)-1-phenylethanol]
- IC50 (Tyk2; Table^a 154): 0.044 µM

Structure (SMILES): CO[C@H]1CC[C@H](c2nnn3cnc4[nH]ccc4c23)CC1 [compound 63]
- IC50 (JAK1): 0.011 µM

Structure (SMILES): N#Cc1cccc(CN2CCC(c3nnn4cnc5[nH]ccc5c34)CC2)c1 [compound 35]
- IC50 (JAK3; ATP 100 μM, Table^a 154): 0.26 µM

Structure (SMILES): c1cc2c(ncn3nnc(C4CCN(Cc5csnn5)CC4)c23)[nH]1 [compound 152]
- IC50 (JAK3; ATP 100 μM, Table^a 154): 0.032 µM

Structure (SMILES): Cc1cc(C#N)ccc1NC[C@H]1CC[C@H](c2nnn3cnc4[nH]ccc4c23)CC1 [compound 103]
- IC50 (JAK3): > 1 µM

Structure (SMILES): CC(C)(C)OC(=O)N1CCCC(c2nnn3cnc4[nH]ccc4c23)C1 (racemic) [compound 13]
- IC50 (Tyk2; Table^a 154): > 1 µM

Structure (SMILES): FC(F)(F)CN1CCC(c2nnn3cnc4[nH]ccc4c23)CC1 [compound 25]
- IC50 (JAK3): 0.44 µM

Structure (SMILES): c1cncc(CN2CCCC(c3nnn4cnc5[nH]ccc5c34)C2)c1 (racemic) [compound 18]
- IC50 (Tyk2; Table^a 154): > 1 µM

Structure (SMILES): c1cc2c(ncn3nnc(C4CCC(NCCN5CCOCC5)CC4)c23)[nH]1 (stereo not shown) [compound 126]
- IC50 (JAK3; ATP 100 μM, Table^a 154): > 1 µM

Structure (SMILES): N#Cc1ccc(CNC[C@H]2CC[C@H](c3nnn4cnc5[nH]ccc5c34)CC2)cc1 [compound 93]
- IC50 (JAK3; ATP 100 μM, Table^a 154): 0.31 µM

Structure (SMILES): O[C@H](CNC[C@H]1CC[C@H](c2nnn3cnc4[nH]ccc4c23)CC1)c1ccccc1 [compound 277, (S)-2-({[trans-4-(7H-pyrrolo[3,2-e][1,2,3]triazolo[1,5-c]pyrimidin-1-yl)cyclohexyl]methyl}amino)-1-phenylethanol]
- IC50 (Tyk2): 0.05 µM

Structure (SMILES): N#Cc1ccc(NC[C@H]2CC[C@H](c3nnn4cnc5[nH]ccc5c34)CC2)cc1 [compound 92]
- IC50 (JAK3; ATP 100 μM, Table^a 154): > 1 µM

Structure (SMILES): c1ccc2sc(CN3CCC(c4nnn5cnc6[nH]ccc6c45)CC3)nc2c1 [compound 232, 2-{[4-(7H-pyrrolo[3,2-e][1,2,3]triazolo[1,5-c]pyrimidin-1-yl)piperidin-1-yl]methyl}benzo[d]thiazole]
- IC50 (JAK3; ATP 100 μM): > 1 µM

Structure (SMILES): CC(C)(C)OC(=O)N[C@H]1CC[C@H](c2nnn3cnc4[nH]ccc4c23)CC1 [compound 59]
- IC50 (Tyk2; Table^a 154): > 1 µM
- IC50 (JAK3; ATP 100 μM, Table^a 154): > 1 µM

Structure (SMILES): O[C@@H](CN[C@H]1CC[C@H](c2nnn3cnc4[nH]ccc4c23)CC1)c1ccccc1 [204b, (R)-2-{[trans-4-(7H-pyrrolo[3,2-e][1,2,3]triazolo[1,5-c]pyrimidin-1-yl)cyclohexyl]amino)-1-phenylethanol]
- IC50 (Tyk2; Table^a 154): 0.35 µM

Structure (SMILES): c1cc2c(ncn3nnc(C4CC5CCC4C5)c23)[nH]1 (stereo not shown) [compound 65]
- IC50 (Tyk2; Table^a 154): 0.025 µM
- IC50 (JAK3; ATP 100 μM, Table^a 154): 0.15 µM

Structure (SMILES): Fc1ccc(CNC[C@H]2CC[C@H](c3nnn4cnc5[nH]ccc5c34)CC2)cc1C(F)(F)F [compound 112]
- IC50 (JAK1): 0.0049 µM
